Earlier results as cited in patent US20180028591A1, “MALE AND FEMALE INFERTILITY HERBAL COMPOSITION” (priority 2016, published 2018).

Test system: rabbit penile tissue
Details: by nitric oxide and PDE5 activity

Q: With `COc1ccc(-c2oc3c(CC=C(C)C)c(O[C@@H]4O[C@H](CO)[C@@H](O)[C@H](O)[C@H]4O)cc(O)c3c(=O)c2O[C@@H]2O[C@@H](C)[C@H](O)[C@@H](O)[C@H]2O)cc1` [icariin] as the compound, how does the “relaxation of penile tissue” value read?
A: The value was “relax rabbit penile tissue”.
